This is an account of results in patent publication US20190175560A1, “MEBENDAZOLE CANCER THERAPIES AND METHODS OF USE” (Shepherd Therapeutics, Inc., priority 2017, published 2019).

For one test, the system named is NCI-H295R cells. The test is described as follows: MBZ vs HA-PLGA-MBZ cell viability IC50 (Cell Titer Glo). Format: cell-based. Conditions: Homo sapiens, 72 hour incubation. An excerpt: (§1) An IC50 for each treatment was established using the PRISM software.
The test system of a further test is SNU-16 cells. Described as above. Format: cell-based. Conditions: Homo sapiens, 72 hour incubation.
Excerpt: as §1

The IC50 is the point on the concentration scale where inhibition reaches its midpoint. A low value points to greater potency in that assay.

Regarding `COC(=O)Nc1nc2ccc(C(=O)c3ccccc3)cc2[nH]1` [MBZ, methyl N-(6-benzoyl-1H-benzimidazol-2-yl)carbamate], the IC50 in the test with NCI-H295R cells was determined as 330 nM; in the test on SNU-16 cells, 110 nM.
